In patent publication US20260265246A1 (ICAHN SCHOOL OF MEDICINE AT MOUNT SINAI, priority 2021, published 2026):
Read-outs that look alike come from different tables or passages of the source.

Columns and labels:
5HT2A receptor [1] = molecular target: T1, 5HT2A receptor (Homo sapiens, UniProt P28223); assay: biochemical; assay type: binding; design: expressed in transfected cells; crude membranes; details: 5HT2A Ki (nM), secondary binding assay, Cheng-Prusoff
5HT2A receptor [2] = molecular target: T1, 5HT2A receptor; assay: cell-based; design: expressed in transfected cells; host or cells: HEK293T cells, transient co-transfection; details: for Emax: HEK-293T
5HT2A receptor [3] = molecular target: T1, 5HT2A receptor; assay: cell-based; design: expressed in transfected cells; host or cells: HEK293T cells, transient co-transfection; details: for Emax: HEK-293T; remark: listed apart in the source
[4] = 5HTA Gq EC50 (nM), BRET2 Gαq dissociation, HEK293T
[5] = BRET2 Gαq dissociation, HEK293T, normalized to 5-HT, read-out: 5HTA Gq Emax (%)
[6] = 5HT2A β-Arr EC50 (nM), BRET1 beta-arrestin2 recruitment, HEK293T
[7] = BRET1 beta-arrestin2 recruitment, HEK293T, normalized to 5-HT, read-out: 5HT2A β-Arr Emax (%)
[8] = BRET2 Gαq dissociation, HEK293T, read-out: 5HTA Gq EC50
[9] = BRET1 beta-arrestin2 recruitment, HEK293T, read-out: 5HT2A β-Arr EC50
[10] = read-out: 5HTA Gq Emax (%), BRET2 Gαq dissociation, HEK293T, normalized to 5-HT
[11] = read-out: 5HT2A β-Arr Emax (%), BRET1 beta-arrestin2 recruitment, HEK293T, normalized to 5-HT

T1 sequence (P28223 whole entry): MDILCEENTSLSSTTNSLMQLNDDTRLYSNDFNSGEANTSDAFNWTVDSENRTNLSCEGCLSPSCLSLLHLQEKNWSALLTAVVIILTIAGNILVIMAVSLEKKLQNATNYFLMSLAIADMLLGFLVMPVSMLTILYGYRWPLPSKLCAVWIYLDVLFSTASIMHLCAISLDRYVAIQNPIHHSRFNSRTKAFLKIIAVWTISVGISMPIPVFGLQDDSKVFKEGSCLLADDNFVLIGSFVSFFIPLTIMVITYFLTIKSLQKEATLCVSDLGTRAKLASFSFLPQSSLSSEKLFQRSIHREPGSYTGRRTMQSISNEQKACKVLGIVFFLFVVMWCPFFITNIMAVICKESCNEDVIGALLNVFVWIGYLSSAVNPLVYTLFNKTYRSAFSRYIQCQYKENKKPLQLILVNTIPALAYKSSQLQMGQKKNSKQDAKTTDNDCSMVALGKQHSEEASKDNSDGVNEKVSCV

| Compound | Ki (5HT2A receptor [1]) [nM] | EC50 (5HT2A receptor [2]; [4]) [nM] | Emax (5HT2A receptor [2]; [5]) [%] | EC50 (5HT2A receptor [3]; [6]) [nM] | Emax (5HT2A receptor [3]; [7]) [%] | EC50 (5HT2A receptor [2]; [8]) [nM] | EC50 (5HT2A receptor [3]; [9]) [nM] | Emax (5HT2A receptor [2]; [10]) [%] | Emax (5HT2A receptor [3]; [11]) [%] |
| --- | --- | --- | --- | --- | --- | --- | --- | --- | --- |
| CN1CCC=C(c2c[nH]c3nc(F)ccc23)C1 [Example 134, 6-fluoro-3-(1-methyl-1,2,5,6-tetrahydropyridin-3-yl)-1H-pyrrolo[2,3-b]pyridine] | 284 | 140 | 87.4 | 1050 | 51.1 |  |  |  |  |
| Cc1ccnc2c(C3=CCCN(C)C3)c[nH]c12 [Example 137, 7-methyl-3-(1-methyl-1,2,5,6-tetrahydropyridin-3-yl)-1H-pyrrolo[3,2-b]pyridine] | 531 | 57.6 | 74.4 | 372 | 44.6 |  |  |  |  |
| C1=C(c2c[nH]c3cccnc23)CNCC1 [Example 138, 3-(1,2,5,6-tetrahydropyridin-3-yl)-1H-pyrrolo[3,2-b]pyridine] | 147 | 118 | 79 | 1420 | 101 |  |  |  |  |
| CCN1CCC=C(c2n[nH]c3c(Cl)cccc23)C1 [Example 145, 7-chloro-3-(1-ethyl-1,2,5,6-tetrahydropyridin-3-yl)-1H-indazole] | 123 |  | 64.4 |  | 42.4 | 23.3 | 77 |  |  |
| CCN1CCC=C(c2nn(CC)c3c(Cl)cccc23)C1 [Example 146, 7-chloro-1-ethyl-3-(1-ethyl-1,2,5,6-tetrahydropyridin-3-yl)-1H-indazole] | 171 | 51.7 | 54.5 | 1530 | 56.7 |  |  |  |  |
| CC#CCN1CCC=C(c2n[nH]c3c(Cl)cccc23)C1 [Example 149, 3-(1-(but-2-yn-1-yl)-1,2,5,6-tetrahydropyridin-3-yl)-7-chloro-1H-indazole] | 364 | 10.1 |  | 113 |  |  |  | 49.8 | 24.2 |
| [2H]C([2H])([2H])N1CCC=C(c2n[nH]c3c(Cl)cccc23)C1 [Example 150, 7-chloro-3-(1-(methyl-d3)-1,2,5,6-tetrahydropyridin-3-yl)-1H-indazole] | 842 | 13.3 |  | 29.9 |  |  |  | 95.3 | 60.9 |
| FC(F)(F)CN1CCC=C(c2n[nH]c3c(Cl)cccc23)C1 [Example 152, 7-chloro-3-(1-(2,2,2-trifluoroethyl)-1,2,5,6-tetrahydropyridin-3-yl)-1H-indazole] | 389 | 1570 |  | 1050 |  |  |  | 89.8 | 66.5 |
| FC(F)CN1CCC=C(c2n[nH]c3c(Cl)cccc23)C1 [Example 153, 7-chloro-3-(1-(2,2-difluoroethyl)-1,2,5,6-tetrahydropyridin-3-yl)-1H-indazole] | 634 | 1240 | 83.9 | 1200 | 77.4 |  |  |  |  |
| CCCN1CCC=C(c2c[nH]c3c(C)cccc23)C1 [Example 155, 7-methyl-3-(1-propyl-1,2,5,6-tetrahydropyridin-3-yl)-1H-indole] | 539 |  | 68.5 | 532 | 34.4 | 29.5 |  |  |  |
| CCCN1CCC=C(c2c[nH]c3c(F)cccc23)C1 [Example 156, 7-fluoro-3-(1-propyl-1,2,5,6-tetrahydropyridin-3-yl)-1H-indole] | 164 |  | 103 |  | 58.4 | 20.2 | 61.2 |  |  |
| CCCN1CCC=C(c2c[nH]c3c(C#N)cccc23)C1 [Example 157, 3-(1-propyl-1,2,5,6-tetrahydropyridin-3-yl)-1H-indole-7-carbonitrile] | 164 |  | 78 | 500 | 39.3 | 93 |  |  |  |
| CCCN1CCC=C(c2c[nH]c3c(CC)cccc23)C1 [Example 158, 7-ethyl-3-(1-propyl-1,2,5,6-tetrahydropyridin-3-yl)-1H-indole] | 368 |  | 82.2 | 120 | 32.6 | 78.4 |  |  |  |
| CCCN1CCC=C(c2c[nH]c3c(Cl)cc(F)cc23)C1 [Example 159] | 126 | 17.5 |  | 66.9 |  |  |  | 90.3 | 39.7 |
| CCCN1CCC=C(c2c[nH]c3c(Cl)c(F)ccc23)C1 [Example 160] | 151 | 74.5 |  | 144 |  |  |  | 84.1 | 30.9 |
| CCCN1CCC=C(c2c[nH]c3c(C)cc(F)cc23)C1 [Example 161, 5-fluoro-7-methyl-3-(1-propyl-1,2,5,6-tetrahydropyridin-3-yl)-1H-indole] | 488 |  | 93.2 | 311 | 35.2 | 84.1 |  |  |  |

| Compound | Ki (5HT2A receptor [1]) [nM] | EC50 (5HT2A receptor [2]; [4]) [nM] | Emax (5HT2A receptor [2]; [5]) [%] | EC50 (5HT2A receptor [3]; [6]) [nM] | Emax (5HT2A receptor [3]; [7]) [%] | EC50 (5HT2A receptor [2]; [8]) [nM] | EC50 (5HT2A receptor [3]; [9]) [nM] | Emax (5HT2A receptor [2]; [10]) [%] | Emax (5HT2A receptor [3]; [11]) [%] |
| --- | --- | --- | --- | --- | --- | --- | --- | --- | --- |
| CCCN1CCC=C(c2c[nH]c3c(C)c(F)ccc23)C1 [Example 162, 6-fluoro-7-methyl-3-(1-propyl-1,2,5,6-tetrahydropyridin-3-yl)-1H-indole] | 1140 | 260 | 80.6 | 303 | 23.4 |  |  |  |  |
| FC(F)(F)CCN1CCC=C(c2n[nH]c3c(Cl)cccc23)C1 [Example 164, 7-chloro-3-(1-(3,3,3-trifluoropropyl)-1,2,5,6-tetrahydropyridin-3-yl)-1H-indazole] | > 10000 | 518 | 52.9 | 836 | 23.3 |  |  |  |  |
| FCCCN1CCC=C(c2n[nH]c3c(Cl)cccc23)C1 [Example 165, 7-chloro-3-(1-(3-fluoropropyl)-1,2,5,6-tetrahydropyridin-3-yl)-1H-indazole] | 342 |  | 65 | 157 | 28.7 | 85.8 |  |  |  |
| Clc1cccc2c(C3=CCCN(C4CC4)C3)n[nH]c12 [Example 166, 7-chloro-3-(1-cyclopropyl-1,2,5,6-tetrahydropyridin-3-yl)-1H-indazole] | 307 | 47.1 |  | 120 |  |  |  | 64 | 24.9 |
| OCCN1CCC=C(c2n[nH]c3c(Cl)cccc23)C1 [Example 168, 2-(5-(7-chloro-1H-indazol-3-yl)-3,6-dihydropyridin-1(2H)-yl)ethan-1-ol] | 8640 | 183 | 68.2 | 1050 | 41.6 |  |  |  |  |
| CCCN1CCC=C(c2n[nH]c3cccc(C#N)c23)C1 [Example 175, 3-(1-propyl-1,2,5,6-tetrahydropyridin-3-yl)-1H-indazole-4-carbonitrile] | 8250 |  | 46.3 | 343 | 31.6 | 88.8 |  |  |  |
| N#Cc1cccc2c(C34CNCC3C4)n[nH]c12 (centres unmarked) [Example 184, 3-(3-azabicyclo[3.1.0]hexan-1-yl)-1H-indazole-7-carbonitrile] | 5680 | 423 | 103 | 1970 | 68.2 |  |  |  |  |
| Fc1cc(Cl)c2[nH]nc(C34CNCC3C4)c2c1 (centres unmarked) [Example 185, 3-(3-azabicyclo[3.1.0]hexan-1-yl)-7-chloro-5-fluoro-1H-indazole] | 6740 | 290 | 78.1 | 542 | 46.1 |  |  |  |  |
| Cc1cccc2c(C34CNCC3C4)n[nH]c12 (centres unmarked) [Example 186, 3-(3-azabicyclo[3.1.0]hexan-1-yl)-7-methyl-1H-indazole] | 748 | 231 | 98.8 | 481 | 46.9 |  |  |  |  |
| Fc1cccc2c(C34CNCC3C4)n[nH]c12 (centres unmarked) [Example 187, 3-(3-azabicyclo[3.1.0]hexan-1-yl)-7-fluoro-1H-indazole] | 699 | 136 | 71.6 | 648 | 35 |  |  |  |  |
| N#Cc1cccc2c(C34CNCCC3C4)n[nH]c12 (centres unmarked) [Example 195, 3-(3-azabicyclo[4.1.0]heptan-1-yl)-1H-indazole-7-carbonitrile] | > 10000 | 1090 | 77.4 | 1040 | 21.7 |  |  |  |  |
| FC1(F)C2CNCC21c1n[nH]c2c(Cl)cccc12 (centres unmarked) [Example 199, 7-chloro-3-(6,6-difluoro-3-azabicyclo[3.1.0]hexan-1-yl)-1H-indazole] | 3440 | 174 | 87.1 | 956 | 76.5 |  |  |  |  |
| Clc1cccc2c(C3=CCNC3)n[nH]c12 [Example 206, 7-chloro-3-(2,5-dihydro-1H-pyrrol-3-yl)-1H-indazole] | 272 |  | 117 |  | 108 | 14.4 | 44.8 |  |  |
| CN1CC=C(c2n[nH]c3c(Cl)cccc23)C1 [Example 207, 7-chloro-3-(1-methyl-2,5-dihydro-1H-pyrrol-3-yl)-1H-indazole] | 203 |  | 94.7 | 129 | 47.8 | 50.9 |  |  |  |
| Clc1cccc2c(C3=CCCCNC3)n[nH]c12 [Example 208, 7-chloro-3-(2,5,6,7-tetrahydro-1H-azepin-3-yl)-1H-indazole] | > 10000 | 849 |  | 1900 |  |  |  | 95.7 | 48.9 |
